Patent publication US9708314B2, “Heterocyclic amide compound” (NISSAN CHEMICAL INDUSTRIES, LTD., priority 2013, dated 2017)

Tests used:
Format in all cases: in vivo
[1] = tested on: directly sowed Oryza sativa; experiment: Test Example 3: effect on crop by application to foliage (Wagner pot, water depth 0.1-0.5 cm); conditions: Nineteenth Table, application to foliage
Description: (§1) 5 Herbicidal ratio of 90% or more (almost completely withered) 4 Herbicidal ratio of 70% or more and less than 90% 3 Herbicidal ratio of 40% or more and less than 70% 2 Herbicidal ratio of 20% or more and less than 40% 1 Herbicidal ratio of 5% or more and less than 20% 0 Herbicidal ratio of 5% or less (almost no effect) [Test Example 3] Herbicidal Effect Test by Application to Foliage After alluvial soil was placed into 1/10000 are of Wagner pot, water was poured and mixed to form a condition having a water depth of 0.1 cm to 0.5 cm. Seeds of Echinochloa crus-galli var. crus-galli, Leptochloa chinensis, Cyperus difformis, and Oryza sativa were sowed and the pot was placed in the greenhouse of 25° C. to 30° C. to grow the plants. After the plants were grown for 14 days, the emulsion agent containing the compound of the present invention prepared in accordance with Formulation Example 2 was diluted with water so as to be a predetermined herbicide amount and the diluted compound was uniformly applied to a stem and leaf part with a small-size spray. Three weeks after the herbicide application, effects on each plant were investigated in accordance with the criteria of Test Example 1. A: Echinochloa oryzicola Vasing., B: Scirpus juncoides, C: Monochoria vaginalis, D: Leptochloa chinensis, E: Cyperus difformis, F: Digitaria ciliaris, G: Setaria viridis, H: Echinochloa crus-galli var. crus-galli, I: Avena fatua, J: Alopecurus myosuroides, K: Lolium multiflorum Lam., L: Apera spica-venti., M: Abutilon theophrasti, N: Amaranthus retroflexus, O: Chenopodium album, P: Stellaria media, Q: Galium spurium, R: Veronica persica, a: transplanted Oryza sativa, b: directly sowed Oryza sativa, c: Zea mays, d: Glycine max, e: Triticum aestivum, f: Beta vulgaris ssp. vulgaris, and g: Brassica campestris L. The application herbicide amount (g/ha) means an amount that a concentration is adjusted so that, when an application amount is converted into per hectare (1 ha), the herbicide is applied by the number of grams (g) of the described value.

Cyperus difformis = experiment: Test Example 3: herbicidal effect by application to foliage (Wagner pot, water depth 0.1-0.5 cm); conditions: Nineteenth Table, application to foliage
Description: as §1

[2] = tested on: Echinochloa crus-galli var. crus-galli; experiment: as above; conditions: Nineteenth Table, application to foliage
Description: as §1

Leptochloa chinensis = experiment: as above; conditions: Nineteenth Table, application to foliage
Description: as §1

Abutilon theophrasti = experiment: Test Example 4: herbicidal effect by application to foliage (diluvial soil, plastic box)
Description: (§2) 5 Herbicidal ratio of 90% or more (almost completely withered) 4 Herbicidal ratio of 70% or more and less than 90% 3 Herbicidal ratio of 40% or more and less than 70% 2 Herbicidal ratio of 20% or more and less than 40% 1 Herbicidal ratio of 5% or more and less than 20% 0 Herbicidal ratio of 5% or less (almost no effect) [Test Example 4] Herbicidal Effect Test by Application to Foliage Sterilized diluvial soil was placed in a plastic box having a length of 21 cm, a width of 13 cm, and a depth of 7 cm. Each of the seeds of Digitaria ciliaris, Setaria viridis, Echinochloa crus-galli var. crus-galli, Avena fatua, Alopecurus myosuroides, Lolium multiflorum Lam., Apera spica-venti., Abutilon theophrasti, Amaranthus retroflexus, Chenopodium album, Stellaria media, Galium spurium, Veronica persica, Zea mays, Glycine max, Oryza sativa, Triticum aestivum, Beta vulgaris ssp. vulgaris, and Brassica campestris L. was sowed in a spot-like manner and was covered with the soil of about 1.5 cm thick. Thereafter, the plants were grown in the greenhouse of 25° C. to 30° C. After the plants were grown for 14 days, the emulsion agent containing the compound of the present invention prepared in accordance with Formulation Example 2 was diluted with water so as to be a predetermined herbicide amount and the diluted compound was uniformly applied to a stem and leaf part with a small-size spray. Three weeks after the herbicide application, effects on each plant were investigated in accordance with the criteria of Test Example 1. A: Echinochloa oryzicola Vasing., B: Scirpus juncoides, C: Monochoria vaginalis, D: Leptochloa chinensis, E: Cyperus difformis, F: Digitaria ciliaris, G: Setaria viridis, H: Echinochloa crus-galli var. crus-galli, I: Avena fatua, J: Alopecurus myosuroides, K: Lolium multiflorum Lam., L: Apera spica-venti., M: Abutilon theophrasti, N: Amaranthus retroflexus, O: Chenopodium album, P: Stellaria media, Q: Galium spurium, R: Veronica persica, a: transplanted Oryza sativa, b: directly sowed Oryza sativa, c: Zea mays, d: Glycine max, e: Triticum aestivum, f: Beta vulgaris ssp. vulgaris, and g: Brassica campestris L. The application herbicide amount (g/ha) means an amount that a concentration is adjusted so that, when an application amount is converted into per hectare (1 ha), the herbicide is applied by the number of grams (g) of the described value.

Galium spurium = experiment: as above
Description: as §2

Avena fatua = experiment: as above
Description: as §2

Alopecurus myosuroides = experiment: as above
Description: as §2

Setaria viridis = experiment: as above
Description: as §2

[3] = tested on: Echinochloa crus-galli var. crus-galli; experiment: as above
Description: as §2

Chenopodium album = experiment: as above
Description: as §2

Digitaria ciliaris = experiment: as above
Description: as §2

Lolium multiflorum Lam. = experiment: as above
Description: as §2

Veronica persica = experiment: as above
Description: as §2

Apera spica-venti. = experiment: as above
Description: as §2

Brassica campestris L. = experiment: Test Example 4: effect on crop by application to foliage (diluvial soil, plastic box); conditions: effect on crop
Description: as §2

Zea mays = experiment: as above; conditions: effect on crop
Description: as §2

[4] = tested on: directly sowed Oryza sativa; experiment: as above; conditions: effect on crop
Description: as §2

Triticum aestivum = experiment: as above; conditions: effect on crop
Description: as §2

Glycine max = experiment: as above; conditions: effect on crop
Description: as §2

[5] = tested on: Beta vulgaris ssp. vulgaris; experiment: as above; conditions: effect on crop
Description: as §2

[6] = application herbicide amount 320 g/ha
[7] = application herbicide amount 224 g/ha
[8] = Application herbicide amount 224 g/ha
[9] = Application herbicide amount 320 g/ha

## Cc1nnc(NC(=O)c2ccc(C(F)(F)F)n3c(C(C)C)nnc23)n1C [5-001]
[1]; [6]
  b (effect on crop grade): 0 (Herbicidal ratio of 5% or less (almost no effect))
Cyperus difformis; [6]
  E (herbicidal effect grade): 0 (Herbicidal ratio of 5% or less (almost no effect))
[2]; [6]
  H (herbicidal effect grade): 1 (Herbicidal ratio of 5% or more and less than 20%)
Leptochloa chinensis; [6]
  D (herbicidal effect grade): 0 (Herbicidal ratio of 5% or less (almost no effect))

## Cc1nnc(NC(=O)c2c(C)cc(C(F)(F)F)n3c(C(C)C)nnc23)o1 [1-089]
[1]; [7]
  b (effect on crop grade): 0 (Herbicidal ratio of 5% or less (almost no effect))
Cyperus difformis; [7]
  E (herbicidal effect grade): 2 (Herbicidal ratio of 20% or more and less than 40%)
[2]; [7]
  H (herbicidal effect grade): 3 (Herbicidal ratio of 40% or more and less than 70%)
Leptochloa chinensis; [7]
  D (herbicidal effect grade): 3 (Herbicidal ratio of 40% or more and less than 70%)
Abutilon theophrasti; [8]
  M: 2 (Herbicidal ratio of 20% or more and less than 40%)
Galium spurium; [8]
  Q: 0 (Herbicidal ratio of 5% or less (almost no effect))
Avena fatua; [8]
  I: 2 (Herbicidal ratio of 20% or more and less than 40%)
Alopecurus myosuroides; [8]
  J: 0 (Herbicidal ratio of 5% or less (almost no effect))
Setaria viridis; [8]
  G: 0 (Herbicidal ratio of 5% or less (almost no effect))
[3]; [8]
  H: 3 (Herbicidal ratio of 40% or more and less than 70%)
Chenopodium album; [8]
  O: 4 (Herbicidal ratio of 70% or more and less than 90%)
Digitaria ciliaris; [8]
  F: 1 (Herbicidal ratio of 5% or more and less than 20%)
Lolium multiflorum Lam.; [8]
  K: 0 (Herbicidal ratio of 5% or less (almost no effect))
Veronica persica; [8]
  R: 3 (Herbicidal ratio of 40% or more and less than 70%)
Apera spica-venti.; [8]
  L: 0 (Herbicidal ratio of 5% or less (almost no effect))
Brassica campestris L.; [8]
  g: 1 (Herbicidal ratio of 5% or more and less than 20%)
Zea mays; [8]
  b: 0 (Herbicidal ratio of 5% or less (almost no effect))
[4]; [8]
  d: 1 (Herbicidal ratio of 5% or more and less than 20%)
Triticum aestivum; [8]
  e: 0 (Herbicidal ratio of 5% or less (almost no effect))
Glycine max; [8]
  c: 0 (Herbicidal ratio of 5% or less (almost no effect))
[5]; [8]
  f: 3 (Herbicidal ratio of 40% or more and less than 70%)

## Cc1nnc(NC(=O)c2ccc(-c3cc(F)cc(F)c3)n3c(C(C)C)nnc23)o1 [1-088]
Abutilon theophrasti; [9]
  M: 0 (Herbicidal ratio of 5% or less (almost no effect))
Galium spurium; [9]
  Q: 0 (Herbicidal ratio of 5% or less (almost no effect))
Avena fatua; [9]
  I: 0 (Herbicidal ratio of 5% or less (almost no effect))
Alopecurus myosuroides; [9]
  J: 0 (Herbicidal ratio of 5% or less (almost no effect))
Setaria viridis; [9]
  G: 0 (Herbicidal ratio of 5% or less (almost no effect))
[3]; [9]
  H: 0 (Herbicidal ratio of 5% or less (almost no effect))
Chenopodium album; [9]
  O: 2 (Herbicidal ratio of 20% or more and less than 40%)
Digitaria ciliaris; [9]
  F: 0 (Herbicidal ratio of 5% or less (almost no effect))
Lolium multiflorum Lam.; [9]
  K: 0 (Herbicidal ratio of 5% or less (almost no effect))
Veronica persica; [9]
  R: 0 (Herbicidal ratio of 5% or less (almost no effect))
Apera spica-venti.; [9]
  L: 0 (Herbicidal ratio of 5% or less (almost no effect))
Brassica campestris L.; [9]
  g: 0 (Herbicidal ratio of 5% or less (almost no effect))
Zea mays; [9]
  b: 0 (Herbicidal ratio of 5% or less (almost no effect))
[4]; [9]
  d: 0 (Herbicidal ratio of 5% or less (almost no effect))
Triticum aestivum; [9]
  e: 0 (Herbicidal ratio of 5% or less (almost no effect))
Glycine max; [9]
  c: 0 (Herbicidal ratio of 5% or less (almost no effect))
[5]; [9]
  f: 0 (Herbicidal ratio of 5% or less (almost no effect))

## Cc1nnc(NC(=O)c2ccc(-c3ccccc3)n3c(C(C)C)nnc23)o1 [1-081]
[1]; [6]
  b (effect on crop grade): 0 (Herbicidal ratio of 5% or less (almost no effect))
Cyperus difformis; [6]
  E (herbicidal effect grade): 0 (Herbicidal ratio of 5% or less (almost no effect))
[2]; [6]
  H (herbicidal effect grade): 2 (Herbicidal ratio of 20% or more and less than 40%)
Leptochloa chinensis; [6]
  D (herbicidal effect grade): 0 (Herbicidal ratio of 5% or less (almost no effect))
Abutilon theophrasti; [9]
  M: 0 (Herbicidal ratio of 5% or less (almost no effect))
Avena fatua; [9]
  I: 0 (Herbicidal ratio of 5% or less (almost no effect))
Alopecurus myosuroides; [9]
  J: 0 (Herbicidal ratio of 5% or less (almost no effect))
Setaria viridis; [9]
  G: 0 (Herbicidal ratio of 5% or less (almost no effect))
[3]; [9]
  H: 0 (Herbicidal ratio of 5% or less (almost no effect))
Chenopodium album; [9]
  O: 4 (Herbicidal ratio of 70% or more and less than 90%)
Digitaria ciliaris; [9]
  F: 0 (Herbicidal ratio of 5% or less (almost no effect))
Lolium multiflorum Lam.; [9]
  K: 0 (Herbicidal ratio of 5% or less (almost no effect))
Veronica persica; [9]
  R: 0 (Herbicidal ratio of 5% or less (almost no effect))
Apera spica-venti.; [9]
  L: 0 (Herbicidal ratio of 5% or less (almost no effect))
Brassica campestris L.; [9]
  g: 0 (Herbicidal ratio of 5% or less (almost no effect))
Zea mays; [9]
  b: 0 (Herbicidal ratio of 5% or less (almost no effect))
[4]; [9]
  d: 0 (Herbicidal ratio of 5% or less (almost no effect))
Triticum aestivum; [9]
  e: 0 (Herbicidal ratio of 5% or less (almost no effect))
Glycine max; [9]
  c: 0 (Herbicidal ratio of 5% or less (almost no effect))
[5]; [9]
  f: 1 (Herbicidal ratio of 5% or more and less than 20%)

## CC(C)c1nnc2c(C(=O)Nc3nnc(-c4ccccn4)o3)ccc(C(F)(F)F)n12 [1-101]
[1]; [6]
  b (effect on crop grade): 0 (Herbicidal ratio of 5% or less (almost no effect))
Cyperus difformis; [6]
  E (herbicidal effect grade): 0 (Herbicidal ratio of 5% or less (almost no effect))
[2]; [6]
  H (herbicidal effect grade): 1 (Herbicidal ratio of 5% or more and less than 20%)
Leptochloa chinensis; [6]
  D (herbicidal effect grade): 0 (Herbicidal ratio of 5% or less (almost no effect))
